The test system of test [1] is HCT-116. Nature of the test: Induction of cell cycle arrest in human HCT-116 assessed as increase in G2/M phase cells at 1 uM incubated for 48 hrs by flow cytometric analysis (reference value: 23.70%). It is filed as functional.
The test system of test [2] is HCT-116. Nature of the test: Induction of ROS production in human HCT-116 cells by flow cytometric analysis. The class given is functional, cell-based. The following applies: dose 0.5-1 µM.
For test [3], the system named is HCT-116. Nature of the test: Induction of apoptosis in human HCT-116 cells assessed as late apoptotic cells at 0.5 uM incubated for 24 hrs by Annexin V-FITC/PI staining based flow cytometry analysis (reference value: 0.323%). It is filed as functional. Background: In flow cytometry, cells or beads pass a laser one at a time.
For test [4], the system named is HCT-116. Nature of the test: Induction of apoptosis in human HCT-116 cells assessed as increase in Bax protein expression at 0.5 to 1 uM incubated for 24 hrs by Western blot analysis. The class given is functional, cell-based. The following applies: dose 0.5-1 µM. Background: In western blotting, separated proteins are transferred to a membrane and probed.
Test [5] concerns HCT-116. Nature of the test: Induction of apoptosis in human HCT-116 cells assessed as viable cells at 0.5 uM incubated for 24 hrs by Annexin V-FITC/PI staining based flow cytometry analysis (reference value: 93.2%). It is filed as functional. The note with it: read-out: Activity.
Test [6] has as its system HCT-116. Nature of the test: Induction of apoptosis in human HCT-116 cells assessed as total apoptotic cells at 0.5 uM incubated for 24 hrs by Annexin V-FITC/PI staining based flow cytometry analysis (reference value: 6.823%). The class given is functional.
The target of test [7] is T1, Protein deacetylase HDAC6 (Homo sapiens, UniProt Q9UBN7).
T1 sequence (Q9UBN7 whole entry): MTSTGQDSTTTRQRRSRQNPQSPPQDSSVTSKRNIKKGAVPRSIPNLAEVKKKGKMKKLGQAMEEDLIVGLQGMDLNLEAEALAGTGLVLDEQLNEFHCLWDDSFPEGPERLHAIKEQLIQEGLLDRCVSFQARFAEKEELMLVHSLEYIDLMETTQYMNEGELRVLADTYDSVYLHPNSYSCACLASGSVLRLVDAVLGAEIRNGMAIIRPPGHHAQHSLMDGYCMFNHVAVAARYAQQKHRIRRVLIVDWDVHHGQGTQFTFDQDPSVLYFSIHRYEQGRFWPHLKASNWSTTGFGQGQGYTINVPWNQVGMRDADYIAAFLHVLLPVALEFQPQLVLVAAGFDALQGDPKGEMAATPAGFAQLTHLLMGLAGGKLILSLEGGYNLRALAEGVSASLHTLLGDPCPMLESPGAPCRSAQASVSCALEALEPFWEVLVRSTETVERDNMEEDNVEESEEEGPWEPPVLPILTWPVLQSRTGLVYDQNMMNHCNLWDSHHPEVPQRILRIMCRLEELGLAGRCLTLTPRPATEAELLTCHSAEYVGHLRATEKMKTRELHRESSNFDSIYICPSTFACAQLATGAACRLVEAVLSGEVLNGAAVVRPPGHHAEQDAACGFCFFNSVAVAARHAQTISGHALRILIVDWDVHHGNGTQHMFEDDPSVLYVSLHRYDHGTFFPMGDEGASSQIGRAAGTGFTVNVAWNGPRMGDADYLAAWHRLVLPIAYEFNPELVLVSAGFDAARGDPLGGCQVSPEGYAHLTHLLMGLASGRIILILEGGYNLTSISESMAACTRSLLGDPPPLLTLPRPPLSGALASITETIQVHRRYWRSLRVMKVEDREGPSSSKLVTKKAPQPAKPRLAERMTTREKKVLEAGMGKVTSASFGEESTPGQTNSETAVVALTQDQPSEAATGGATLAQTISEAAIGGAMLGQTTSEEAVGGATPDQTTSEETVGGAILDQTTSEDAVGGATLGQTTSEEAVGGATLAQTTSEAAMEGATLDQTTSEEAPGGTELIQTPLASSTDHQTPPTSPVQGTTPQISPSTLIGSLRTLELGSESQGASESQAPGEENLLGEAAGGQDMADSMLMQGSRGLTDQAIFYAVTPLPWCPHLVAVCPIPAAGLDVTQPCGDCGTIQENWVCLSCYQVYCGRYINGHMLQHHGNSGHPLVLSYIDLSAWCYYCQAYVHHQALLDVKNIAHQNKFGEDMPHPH
Nature of the test: Inhibition of HDAC6 (unknown origin).

The test system of the next test is RS4-11. Nature of the test: Potency index, ratio of SAHA IC50 to test compound IC50 for antiproliferative activity against human RS4-11 cells assessed as inhibition of cell growth by MTT assay. The class given is functional.
For test [8], the system named is HCT-116. Nature of the test: Induction of apoptosis in human HCT-116 cells assessed as viable cells at 1 uM incubated for 24 hrs by Annexin V-FITC/PI staining based flow cytometry analysis (reference value: 93.2%). The note with it: Homo sapiens, HCT-116, read-out: Activity. It is filed as functional.
In test [9] the test system is HCT-116. Nature of the test: Induction of cell cycle arrest in human HCT-116 assessed as decrease in G0/G1 phase cells at 0.5 uM incubated for 48 hrs by flow cytometric analysis (reference value: 63.51%). It is filed as functional. Details: scale not given: the % may be the effect or the level left.
In test [10] the test system is HCT-116. Nature of the test: Induction of cell cycle arrest in human HCT-116 assessed as increase in G2/M phase cells at 0.5 uM incubated for 48 hrs by flow cytometric analysis (reference value: 23.70%). It is filed as functional.
A further test has as its target Histone deacetylase 2 (Homo sapiens, UniProt Q92769). Nature of the test: Inhibition of HDAC2 (unknown origin).
The next test has as its target Histone deacetylase 3 (Homo sapiens, UniProt O15379). Nature of the test: Inhibition of HDAC3 (unknown origin).
The next test addresses Histone deacetylase 4 (Homo sapiens, UniProt P56524). Nature of the test: Inhibition of HDAC4 (unknown origin).
Test [11] relates to HCT-116. Nature of the test: Induction of apoptosis in human HCT-116 cells assessed as necrotic cells at 0.5 uM incubated for 24 hrs by Annexin V-FITC/PI staining based flow cytometry analysis (reference value: 0.00%). It is filed as functional.
In the next test the test system is A2780. Nature of the test: Antiproliferative activity against human A2780 cells assessed as inhibition of cell growth by MTT assay. The class given is functional, cell-based. Background: Tetrazolium assays rely on reduction of a dye to a coloured formazan, in cell work by metabolically active cells.
The subject of test [12] is HCT-116. Nature of the test: Induction of cell cycle arrest in human HCT-116 assessed as S phase cells at 1 uM incubated for 48 hrs by flow cytometric analysis (reference value: 12.79%). It is filed as functional.
The test system of test [13] is HCT-116. Nature of the test: Induction of apoptosis in human HCT-116 cells assessed as activation of caspase pathway incubated for 24 hrs by Western blot analysis. It is filed as functional, cell-based. The following applies: dose 0.5-1 µM.
The subject of the next test is PANC-1. Nature of the test: Antiproliferative activity against human PANC-1 cells assessed as inhibition of cell growth by MTT assay. It is filed as functional, cell-based.

For orientation: pIC50 means the IC50 on a negative log10 scale, so that one unit is a factor of ten.

pIC50: −log10 of the molar value. The source made the active and inactive calls. The rule behind the calls is not given here.

Histone deacetylase 4, sequence (P56524 whole entry): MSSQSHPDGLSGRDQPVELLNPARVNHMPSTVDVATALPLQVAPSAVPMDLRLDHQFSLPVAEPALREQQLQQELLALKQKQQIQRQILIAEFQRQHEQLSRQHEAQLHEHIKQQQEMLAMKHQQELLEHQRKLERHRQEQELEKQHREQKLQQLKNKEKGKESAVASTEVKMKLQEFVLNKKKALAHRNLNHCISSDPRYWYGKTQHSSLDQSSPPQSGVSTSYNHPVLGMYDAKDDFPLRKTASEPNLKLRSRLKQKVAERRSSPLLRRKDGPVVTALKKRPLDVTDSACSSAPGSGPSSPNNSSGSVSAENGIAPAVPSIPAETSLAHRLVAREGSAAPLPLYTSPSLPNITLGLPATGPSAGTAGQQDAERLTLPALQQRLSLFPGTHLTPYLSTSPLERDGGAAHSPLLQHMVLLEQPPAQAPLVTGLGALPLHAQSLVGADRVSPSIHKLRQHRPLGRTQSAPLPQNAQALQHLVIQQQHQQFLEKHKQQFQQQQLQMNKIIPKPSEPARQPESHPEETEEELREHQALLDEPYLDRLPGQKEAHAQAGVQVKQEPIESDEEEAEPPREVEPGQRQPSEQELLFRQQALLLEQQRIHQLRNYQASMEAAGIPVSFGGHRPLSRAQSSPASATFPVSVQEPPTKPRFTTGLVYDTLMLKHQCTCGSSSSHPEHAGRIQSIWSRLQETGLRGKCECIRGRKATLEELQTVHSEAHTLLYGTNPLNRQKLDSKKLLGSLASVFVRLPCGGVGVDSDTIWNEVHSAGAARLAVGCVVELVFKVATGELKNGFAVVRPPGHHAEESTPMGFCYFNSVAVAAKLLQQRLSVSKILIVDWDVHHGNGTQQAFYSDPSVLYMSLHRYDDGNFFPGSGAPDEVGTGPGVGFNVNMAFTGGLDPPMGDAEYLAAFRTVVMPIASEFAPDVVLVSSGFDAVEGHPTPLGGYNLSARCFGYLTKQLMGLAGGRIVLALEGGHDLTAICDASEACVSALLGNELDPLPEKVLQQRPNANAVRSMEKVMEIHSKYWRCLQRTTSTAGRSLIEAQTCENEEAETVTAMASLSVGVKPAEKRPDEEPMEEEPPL
Histone deacetylase 2, sequence (Q92769 whole entry): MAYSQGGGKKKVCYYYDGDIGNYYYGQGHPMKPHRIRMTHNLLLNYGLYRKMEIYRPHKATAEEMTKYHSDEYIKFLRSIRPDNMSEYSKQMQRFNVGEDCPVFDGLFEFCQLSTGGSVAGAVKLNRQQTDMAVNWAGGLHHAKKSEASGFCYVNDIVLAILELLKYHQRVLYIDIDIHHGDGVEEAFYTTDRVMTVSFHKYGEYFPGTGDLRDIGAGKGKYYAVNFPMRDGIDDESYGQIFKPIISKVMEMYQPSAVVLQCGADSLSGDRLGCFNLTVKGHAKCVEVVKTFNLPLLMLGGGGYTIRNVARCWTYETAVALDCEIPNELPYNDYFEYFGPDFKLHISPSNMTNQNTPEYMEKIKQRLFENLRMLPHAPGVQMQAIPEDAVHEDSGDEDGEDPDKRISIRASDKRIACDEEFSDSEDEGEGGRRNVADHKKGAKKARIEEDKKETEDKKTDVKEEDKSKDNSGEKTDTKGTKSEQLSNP
Histone deacetylase 3, sequence (O15379 whole entry): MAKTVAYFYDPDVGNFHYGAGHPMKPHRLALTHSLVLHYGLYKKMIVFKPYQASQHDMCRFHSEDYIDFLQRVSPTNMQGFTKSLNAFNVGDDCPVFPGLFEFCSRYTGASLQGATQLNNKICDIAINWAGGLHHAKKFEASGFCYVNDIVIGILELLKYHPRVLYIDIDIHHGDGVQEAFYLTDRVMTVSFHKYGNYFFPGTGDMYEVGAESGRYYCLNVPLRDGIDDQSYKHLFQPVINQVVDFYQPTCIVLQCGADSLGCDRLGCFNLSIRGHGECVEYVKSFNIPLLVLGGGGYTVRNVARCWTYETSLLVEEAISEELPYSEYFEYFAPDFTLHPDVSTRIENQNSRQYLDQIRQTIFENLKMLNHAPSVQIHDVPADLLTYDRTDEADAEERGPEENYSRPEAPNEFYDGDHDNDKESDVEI

As for `O=C(CCCCCCNc1nc2ccccc2nc1-c1nc2ccccc2o1)NO`, the Activity in the test with HCT-116 [1] was 39.64%; with HCT-116 [2], “Dose-Dependent Effect”; in the test with HCT-116 [3], 7.21%; in the test on HCT-116 [6], 35.31%; in the test on HCT-116 [9] it was 51.68%; with HCT-116 [10], 36.67%. For the same molecule, the Activity was 0.241% with HCT-116 [11], 13.79% in the test with HCT-116 [12] and “Dose-Dependent Effect” in the test on HCT-116 [13]. Further, the result in the test with HCT-116 [4] was Active. In the test on HCT-116 [5], the viability at 0.5 µM is 64.5%. The pIC50 in [7] was 7.35; on Histone deacetylase 2 it was 7.46; against Histone deacetylase 3 it was 7.81; against Histone deacetylase 4, 7.81; in the test on A2780, 5.75; in the test with PANC-1, 5.99. Moreover, the “Ratio IC50” value in the test on RS4-11 came to 2. The viability at 1 µM with HCT-116 [8] is 48.1%.

These data come from ChEMBL document CHEMBL5257106, “Design, synthesis, and biological evaluation of novel HDAC inhibitors with a 3-(benzazol-2-yl)quinoxaline framework” (Bioorg Med Chem Lett, 2023).
